Experimental data taken from article PMC6508583 (Journal of the American Chemical Society, 2019).
Values after ≈ are worked out from the molar mass of the structure shown. Like-named read-outs stand apart in the source and are kept apart here.

Key:
[1] = system: wild-type bacterial ribosome; experiment: Cell-free translation assay, wild-type bacterial ribosome; format: biochemical; conditions: in vitro translation inhibition
[2] = system: Mit13 hybrid ribosome (decoding A site of the human mitochondrial ribosome); format: biochemical; conditions: for Selectivity Mit 13: Mit13 over wt bacterial ribosome; for IC50 Mit13: in vitro translation inhibition, Mit13 hybrid ribosome
[3] = system: A1555G mutant mitochondrial hybrid ribosome; format: biochemical, human; conditions: for Selectivity A1555G: A1555G over wt bacterial ribosome; for IC50 A1555G: in vitro translation inhibition, A1555G mutant mitochondrial hybrid ribosome
[4] = system: Cyt14 hybrid ribosome (decoding A site of the human cytoplasmic ribosome); format: biochemical; conditions: for Selectivity Cyt14: Cyt14 over wt bacterial ribosome; for IC50 Cyt 14: in vitro translation inhibition, Cyt14 hybrid ribosome
MRSA = experiment: Antibacterial activity against reference strains: MRSA; format: cell-based; conditions: for Antibacterial activity (MIC) MRSA AG038: strain AG038; for Antibacterial activity (MIC) MRSA AG042: strain AG042 carries the AAC(6)’, ANT(4’,4’’) and APH(3’) genes; for MIC: Staphylococcus aureus, MRSA
K. pneumoniae = experiment: Antibacterial activity against reference strains: K. pneumoniae; format: cell-based; conditions: strain AG215
E. cloacae = experiment: Antibacterial activity against reference strains: E. cloacae; format: cell-based; conditions: for Antibacterial activity (MIC) E. cloacae AG290: strain AG290; for MIC: Enterobacter cloacae, read-out: Antibacterial activity (MIC) E. cloacae AG290
A. baumannii = experiment: Antibacterial activity against reference strains: A. baumannii; format: cell-based; conditions: strain AG225
E. coli = experiment: Antibacterial activity against reference strains: E. coli; conditions: for Antibacterial activity (MIC) E. coli AG001: strain AG001; for Antibacterial activity (MIC) E. coli AG003: strain AG003 carries the AAC(3) gene; for MIC: Escherichia coli
P. aeruginosa = experiment: Antibacterial activity against reference strains: P. aeruginosa; conditions: for Antibacterial activity (MIC) P. aeruginosa AG031: strain AG031 carries the APH(3’) gene
[5] = system: E. coli carrying specific resistance determinants; experiment: Activity against wild-type and engineered E. coli carrying specific AMEs or RMTs; format: cell-based; conditions: Escherichia coli
[6] = system: E. coli clinical isolates carrying two or more resistance determinants; experiment: Activity against E. coli clinical isolates with multiple resistance determinants; format: cell-based; conditions: Escherichia coli
[7] = system: E. cloacae clinical isolates carrying two or more resistance determinants; format: cell-based; conditions: Enterobacter cloacae
[8] = read-out: Antibacterial activity (MIC) MRSA AG038
[9] = read-out: Antibacterial activity (MIC) MRSA AG042
[10] = read-out: Activity (MIC) E. coli AG006
[11] = read-out: Activity (MIC) E. coli AG007
[12] = read-out: Activity (MIC) E. coli AG008
[13] = read-out: Activity (MIC) E. coli AG009
[14] = read-out: Activity (MIC) E. coli AG036
[15] = read-out: Activity (MIC) E. coli AG103
[16] = read-out: Activity (MIC) E. coli AG105
[17] = read-out: Activity (MIC) E. coli AG166
[18] = read-out: Activity (MIC) E. coli isolate 201430298
[19] = read-out: Activity (MIC) E. coli isolate 201441114
[20] = read-out: Activity (MIC) E. coli isolate 2014251408
[21] = read-out: Activity (MIC) E. coli isolate 2014405344
[22] = read-out: Activity (MIC) E. cloacae isolate 201333207
[23] = read-out: Activity (MIC) E. cloacae isolate 201385168
[24] = read-out: Activity (MIC) E. cloacae isolate 201430601
[25] = read-out: Activity (MIC) E. cloacae isolate 201435487
[26] = read-out: Antibacterial activity (MIC) E. coli AG001
[27] = read-out: Antibacterial activity (MIC) E. coli AG003

Row | Structure (SMILES) | IC50 wt [1] [µg/mL] | Selectivity Mit 13 [2] | IC50 Mit13 [2] [µg/mL] | Selectivity A1555G [3] | IC50 A1555G [3] [µg/mL] | Selectivity Cyt14 [4] | IC50 Cyt 14 [4] [µg/mL] | Antibacterial activity (MIC) MRSA AG038 (MRSA) [µg/mL] | Antibacterial activity (MIC) MRSA AG042 (MRSA) [µg/mL] | Antibacterial activity (MIC) K. pneumoniae AG215 (K. pneumoniae) [µg/mL] | Antibacterial activity (MIC) E. cloacae AG290 (E. cloacae) [µg/mL] | Antibacterial activity (MIC) A. baumannii AG225 (A. baumannii) [µg/mL] | Antibacterial activity (MIC) E. coli AG001 (E. coli) [µg/mL] | Antibacterial activity (MIC) E. coli AG003 (E. coli) [µg/mL] | Antibacterial activity (MIC) P. aeruginosa AG031 (P. aeruginosa) [µg/mL] | MIC (MRSA; [8]) [µg/mL] | MIC (MRSA; [9]) [µg/mL] | MIC (E. cloacae) [µg/mL] | MIC [5, 10] [µg/mL] | MIC [5, 11] [µg/mL] | further results
1 | CCC1C(CO)OC(OC2C(N)CC(N)C(O)C2OC2OC(CO)C(OC3OC(CN)C(O)C(O)C3N)C2O)C(N)C1O (stereo not drawn) [Compound 35] | 0.06 (≈ 0.0956 µM) | 3033 | 182 (≈ 290 µM) | 2150 | 129 (≈ 206 µM) | 1867 | 112 (≈ 178 µM) | 8 | 4 to 8 | 4 | 4 to 8 | 16 to 32 | 8 | 8 | 64 to 128 | – | – | – | – | – | –
2 | NCC1OC(OC2C(CO)OC(OC3C(O)C(N)CC(N)C3OC3OC(CO)C(CC(O)CO)C(O)C3N)C2O)C(N)C(O)C1O (stereo not drawn) [Compound 37] | 0.10 (≈ 0.148 µM) | 320 | 32 (≈ 47.5 µM) | 330 | 33 (≈ 49 µM) | 590 | 59 (≈ 87.6 µM) | 4 | 8 | 8 | 4 to 8 | 8 | 16 | 8 | 16 to 32 | – | – | – | – | – | Antibacterial activity (MIC) P. aeruginosa AG220 (P. aeruginosa; strain AG220 carries the APH(3’) gene): 16 µg/mL
3 | CNC(C)C1CCC(N)C(OC2C(N)CC(N)C(OC3OCC(C)(O)C(NC)C3O)C2O)O1 (stereo not drawn) [Gentamicin] | 0.02 (≈ 0.0419 µM) | – | 9 (≈ 18.8 µM) | – | 0.5 (≈ 1.05 µM) | – | 33 (≈ 69.1 µM) | – | – | – | – | – | – | – | – | 0.25 (≈ 0.523 µM) | 64 (≈ 134 µM) | 0.25 (≈ 0.523 µM) | 0.5 (≈ 1.05 µM) | 32 (≈ 67 µM) | MIC [5, 12]: 8 to 16 µg/mL (≈ 16.8 to 33.5 µM); MIC [5, 13]: 1 to 2 µg/mL (≈ 2.09 to 4.19 µM); MIC [5, 14]: 0.5 µg/mL (≈ 1.05 µM); MIC [5, 15]: > 128 µg/mL; MIC [5, 16]: 32 µg/mL (≈ 67 µM); MIC [5, 17]: 0.5 µg/mL (≈ 1.05 µM); MIC [6, 18]: 128 µg/mL (≈ 268 µM); MIC [6, 19]: 16 µg/mL (≈ 33.5 µM); MIC [6, 20]: 256 µg/mL (≈ 536 µM); MIC [6, 21]: > 256 µg/mL; MIC [7, 22]: 64 µg/mL (≈ 134 µM); MIC [7, 23]: > 256 µg/mL; MIC [7, 24]: 16 µg/mL (≈ 33.5 µM); MIC [7, 25]: 64 µg/mL (≈ 134 µM); MIC (E. coli; [26]): 1 to 2 µg/mL (≈ 2.09 to 4.19 µM); MIC (E. coli; [27]): 32 to 64 µg/mL (≈ 67 to 134 µM)
4 | NC[C@H]1O[C@H](O[C@H]2[C@H](O)[C@@H](O[C@H]3O[C@H](CO)[C@@H](O)[C@H](N)[C@H]3O)[C@H](N)C[C@@H]2N)[C@H](N)C[C@@H]1O [Tobramycin] | 0.02 (≈ 0.0428 µM) | 750 | 15 (≈ 32.1 µM) | 25 | 0.5 (≈ 1.07 µM) | 1350 | 27 (≈ 57.8 µM) | – | – | – | – | – | – | – | – | 0.5 to 1 (≈ 1.07 to 2.14 µM) | ≥ 256 | 0.5 to 1 (≈ 1.07 to 2.14 µM) | 0.5 (≈ 1.07 µM) | 4 (≈ 8.56 µM) | MIC [5, 12]: 8 µg/mL (≈ 17.1 µM); MIC [5, 13]: 64 to 128 µg/mL (≈ 137 to 274 µM); MIC [5, 14]: 16 to 32 µg/mL (≈ 34.2 to 68.4 µM); MIC [5, 15]: > 128 µg/mL; MIC [5, 16]: 1 µg/mL (≈ 2.14 µM); MIC [5, 17]: 0.5 to 1 µg/mL (≈ 1.07 to 2.14 µM); MIC [6, 18]: 256 µg/mL (≈ 548 µM); MIC [6, 19]: 32 µg/mL (≈ 68.4 µM); MIC [6, 20]: 128 µg/mL (≈ 274 µM); MIC [6, 21]: > 256 µg/mL; MIC [7, 22]: 32 µg/mL (≈ 68.4 µM); MIC [7, 23]: > 256 µg/mL; MIC [7, 24]: 32 µg/mL (≈ 68.4 µM); MIC [7, 25]: 16 µg/mL (≈ 34.2 µM); MIC (E. coli; [26]): 1 to 2 µg/mL (≈ 2.14 to 4.28 µM); MIC (E. coli; [27]): 4 µg/mL (≈ 8.56 µM)
